Results as given in patent US6169181A, “Compounds useful to treat retroviral infections” (Pharmacia & Upjohn Company, priority 1998, dated 2001).
Where “and” joins values, the source holds several entries; their conditions need not be identical. Equal values may be shown once. Read-outs that look alike come from different tables or passages of the source.

Columns and labels:
HIV-1 protease [1] = molecular target: T1, HIV-1 protease (Human immunodeficiency virus type 1 group M subtype B, UniProt P04585); experiment: biochemical; conditions: for inhibition at 0.123 µM / inhibition at 0.37 µM / inhibition at 1.1 µM / inhibition at 3.3 µM / inhibition at 10 µM / inhibition at 30 µM: read-out: Protease % Inhib
Experimental: (§1) The HIV protease screening assay is based on fluorescently labeled substrate which can be resolved from nonlabeled cleavage product using special beads coated with streptavidin. The substrate is biotinylated at the amino terminal arginine and fluorescently labeled with fluorescein isothiocynate (FITC) at the carboxyl terminal lysine. This assay has been employed to detect novel, nonpeptidic inhibitors of HIV-1 protease. Substrate (20 μM of 0.2 μM), sample (10 μl of desired concentraion), and enzyme (10 μl of 0.1 μM) are added to a 96 well pandex plate. The assay is run in 0.1 M sodium acetate buffer at pH 5.5 in the presence of 1.0 M sodium chloride and 0.05% NP-40 with incubated in the dark for one hour at room temperature. Strepavidin coated polystyrene beads {40 μl of 0.1% (w/v)} are added and the plate is incubated in the dark for an additional half hour. The labeled cleavage product is separated from the unreacted substrate via filtration and is read on the Idexx screen machine. The data are analyzed by appropriate computer algorithms to ascertain percent inhibition values.

HIV-1 protease [2] = molecular target: T1, HIV-1 protease; experiment: biochemical
Experimental: as §1, with “This assay has been employed to detect novel, nonpeptidic inhibitors of HIV-1 protease.” left out
Determination of Ki values utilizes the same materials and equipment employed for percent inhibition studies. Two-fold serial dilutions are made for a given inhibitor from 2, 3 or 4 starting concentrations with a total of 24, 36 or 48 individual inhibitor concentrations. These dilutions are performed utilizing the BioMek robotics system. The assay consists of 10 μL of 40 nM HIV-1 protease, 10 μL of the various inhibitor concentrations, and 20 μL of 200 μM substrate (40 μL total). The reaction is allowed to proceed for 90 min at room temperature, terminated with 40 μL of avidin beads and processed (supra vide). An inhibitor with a known K; is run in parallel to verify the validity of the assay. The data is processed utilizing a computer program employing a nonlinear least square analysis of the data to generate the Ki values.

[3] = Table II, enzyme HIV-1, DOSE 0.123 (unit not given)
[4] = Table II, enzyme HIV-1, DOSE 0.370 (unit not given)
[5] = Table II, enzyme HIV-1, DOSE 1.100 (unit not given)
[6] = Table II, enzyme HIV-1, DOSE 3.300 (unit not given)
[7] = Table II, enzyme HIV-1, DOSE 10.000 (unit not given)
[8] = Table II, enzyme HIV-1, DOSE 30.000 (unit not given)
[9] = Table II, enzyme HIV-1, read-out: FITC KI
[10] = Table I, read-out: HIV Protease FITC Assay Ki

| SMILES | Ki (HIV-1 protease [2]; [10]) | inhibition at 0.123 µM (HIV-1 protease [1]; Table I, Dose 0.123 μM) | inhibition at 0.37 µM (HIV-1 protease [1]; Table I, Dose 0.370 μM) | inhibition at 1.1 µM (HIV-1 protease [1]; Table I, Dose 1.100 μM) | inhibition at 3.3 µM (HIV-1 protease [1]; Table I, Dose 3.300 μM) | inhibition at 10 µM (HIV-1 protease [1]; Table I, Dose 10.000 μM) | inhibition at 30 µM (HIV-1 protease [1]; Table I, Dose 30.000 μM) | other results |
| --- | --- | --- | --- | --- | --- | --- | --- | --- |
| CCC[C@@]1(CCc2ccc(F)cc2)CC(O)=C([C@H](c2cccc(NS(=O)(=O)c3cn(C)cn3)c2)C(C)(C)C)C(=O)O1 (single isomer, unassigned) [Example 351, N-[3-{1(S or R)-(4-Hydroxy-5,6-dihydro-2-oxo-6(R or S)-(2-(4-fluorophenyl)ethyl)-6-propyl-2H-pyran-3-yl)-2,2-dimethyl-propyl}phenyl]-1-methyl-1H-imidazole-4-sulfonamide] |  |  |  |  |  |  |  | PROTEASE % INHIB. (HIV-1 protease [1]; [3]): < 10%; PROTEASE % INHIB. (HIV-1 protease [1]; [4]): < 10%; PROTEASE % INHIB. (HIV-1 protease [1]; [5]): 25.4%; PROTEASE % INHIB. (HIV-1 protease [1]; [6]): 55.11%; PROTEASE % INHIB. (HIV-1 protease [1]; [7]): 78.53%; PROTEASE % INHIB. (HIV-1 protease [1]; [8]): 90.55%; Ki (HIV-1 protease [2]; [9]): 558 nM |
| CCCC1(CCC)CC(O)=C(C(c2cccc(NS(=O)(=O)c3cn(C)cn3)c2)C2CC2)C(=O)O1 (single isomer, unassigned) [Example 57] | 0.36 nM |  |  |  |  |  |  | PROTEASE % INHIB. (HIV-1 protease [1]; Table I, Dose 0.123 μM): 99.07%; PROTEASE % INHIB. (HIV-1 protease [1]; Table I, Dose 0.370 μM): 105.17%; PROTEASE % INHIB. (HIV-1 protease [1]; Table I, Dose 1.100 μM): 110.68%; PROTEASE % INHIB. (HIV-1 protease [1]; Table I, Dose 3.300 μM): 97.8%; PROTEASE % INHIB. (HIV-1 protease [1]; Table I, Dose 10.000 μM): 104.74%; PROTEASE % INHIB. (HIV-1 protease [1]; Table I, Dose 30.000 μM): 115.02% |
| CCCC1(CCc2ccccc2)CC(O)=C(C(CC)c2cccc(NS(=O)(=O)c3cccc4cccnc34)c2)C(=O)O1 (centres unmarked) [Example 42, N-[3-[1-(4-hydroxy-2-oxo-6-phenethyl-6-propyl-5,6-dihydro-2H-pyran-3-yl)-propyl]-phenyl]-8-quinolinesulfonamide] |  |  |  |  |  |  |  | inhibition at 0.123 µM (HIV-1 protease [1]): 86.2%; inhibition at 0.37 µM (HIV-1 protease [1]): 103%; inhibition at 1.1 µM (HIV-1 protease [1]): 98.3%; inhibition at 3.3 µM (HIV-1 protease [1]): 102%; inhibition at 10 µM (HIV-1 protease [1]): 91.4%; inhibition at 30 µM (HIV-1 protease [1]): 76.1%; Ki (HIV-1 protease [2]; read-out: HIV Protease FITC Assay Ki): 3.1 nM |
| CCC[C@]1(CCc2ccc(F)cc2)CC(O)=C([C@H](c2cccc(NS(=O)(=O)c3cn(C)cn3)c2)C(C)(C)C)C(=O)O1 (single isomer, unassigned) [Example 352, N-[3-{1(S or R)-(4-Hydroxy-5,6-dihydro-2-oxo-6(S or R)-(2-(4-fluorophenyl)ethyl)-6-propyl-2H-pyran-3-yl)-2,2-dimethyl-propyl}phenyl]-1-methyl-1H-imidazole-4-sulfonamide] |  |  |  |  |  |  |  | PROTEASE % INHIB. (HIV-1 protease [1]; [3]): < 10%; PROTEASE % INHIB. (HIV-1 protease [1]; [4]): 25.31%; PROTEASE % INHIB. (HIV-1 protease [1]; [5]): 47.78%; PROTEASE % INHIB. (HIV-1 protease [1]; [6]): 74.99%; PROTEASE % INHIB. (HIV-1 protease [1]; [7]): 85.86%; PROTEASE % INHIB. (HIV-1 protease [1]; [8]): 87.82%; Ki (HIV-1 protease [2]; [9]): 168 nM |
| CC(C)(C)C(C1=C(O)CC(CCc2ccccc2)(CCc2ccccc2)OC1=O)c1cccc(NS(=O)(=O)c2ccc(C#N)cn2)c1 (centres unmarked) [Example 344, N-[3-{1-(4-Hydroxy-5,6-dihydro-2-oxo-6,6-bis(2-phenylethyl)-2H-pyran-3-yl)-2,2-dimethylpropyl}phenyl]-5-cyanopyridine-2-sulfonamide] |  |  |  |  |  |  |  | PROTEASE % INHIB. (HIV-1 protease [1]; [3]): 47.37%; PROTEASE % INHIB. (HIV-1 protease [1]; [4]): 72.84%; PROTEASE % INHIB. (HIV-1 protease [1]; [5]): 81.17%; PROTEASE % INHIB. (HIV-1 protease [1]; [6]): 83.08%; PROTEASE % INHIB. (HIV-1 protease [1]; [7]): 68.47%; PROTEASE % INHIB. (HIV-1 protease [1]; [8]): 46.24%; Ki (HIV-1 protease [2]; [9]): 5.9 nM |
| CCCC1CCCCCc2c1oc(=O)c(C(c1cccc(NS(=O)(=O)c3ccccc3)c1)C1CC1)c2O (centres unmarked) [Example 1, N-[3-[cyclopropyl(5,6,7,8,9,10-hexahydro-4-hydroxy-2-oxo-10-propyl-2H-cycloocta[b]pyran-3-yl)methyl]phenyl]benzenesulfonamide] | 15 nM | 75.4% | 87.3% | 97.1% | 96.8% | 99.7% | 97.4% |  |
| O=c1oc2c(c(O)c1C(c1cccc(NS(=O)(=O)c3ccccn3)c1)C1CC1)CCCCCC2 (centres unmarked) [Example 239] | 1.44 nM and 0.86 nM | 83.6% | 96.6% | 98.4% | 99.5% | 103% | 108% |  |
| CCCC1(CCC)CC(O)=C(C(c2cccc(NS(=O)(=O)c3cccc4cccnc34)c2)C2CC2)C(=O)O1 (centres unmarked) [Example 49] | 0.96 nM | 111% | 120% | 120% | 106% | 108% | 112% |  |
| CCCC1(CCc2ccc(F)cc2)CC(O)=C(C(c2cccc(NS(=O)(=O)c3cccc4cccnc34)c2)C(C)(C)C)C(=O)O1 (centres unmarked) [Example 329, N-[3-{1-(4-Hydroxy-5,6-dihydro-2-oxo-6-(2-(4-fluorophenyl)ethyl)-6-propyl-2H-pyran-3-yl)-2,2-dimethylpropyl)phenyl]-8-quinolinesulfonamide] |  |  |  |  |  |  |  | PROTEASE % INHIB. (HIV-1 protease [1]; [3]): 46.4%; PROTEASE % INHIB. (HIV-1 protease [1]; [4]): 88.19%; PROTEASE % INHIB. (HIV-1 protease [1]; [5]): 96.63%; PROTEASE % INHIB. (HIV-1 protease [1]; [6]): 100.32%; PROTEASE % INHIB. (HIV-1 protease [1]; [7]): 97.07%; PROTEASE % INHIB. (HIV-1 protease [1]; [8]): 96.35%; Ki (HIV-1 protease [2]; [9]): 12 nM |
| CCCC1(CCC)CC(O)=C(C(c2cccc(NS(=O)(=O)c3cn(C)cn3)c2)C2CC2)C(=O)O1 (single isomer, unassigned) [Example 56, (R or S)-N-[3-[1-(4-Hydroxy-2-oxo-6,6-dipropyl-5,6-dihydro-2H-pyran-3-yl)-cyclopropylmethyl]-phenyl]-1-methyl-1H-imidazole-4-sulfonamide] | 0.23 nM | 104% | 108% | 105% | 105% | 115% | 111% |  |
| CCCC1(CCc2ccc(F)cc2)CC(O)=C(C(c2cccc(NS(=O)(=O)c3cn(C)cn3)c2)C(C)(C)C)C(=O)O1 (centres unmarked) [Example 252, N-[3-{1-(4-Hydroxy-5,6-dihydro-2-oxo-6-(2-(4-fluorophenyl)ethyl)-6-propyl-2H-pyran-3-yl)-2,2-dimethylpropyl}phenyl]-1-methyl-1H-imidazole-4-sulfonamide] | 1.6 nM | 70% | 85% | 89.7% | 101% | 96.2% | 91.4% |  |
| CC[C@H](Cc1ccccc1)c1cc(O)c(C(c2cccc(NS(=O)(=O)c3nccn3C)c2)C2CC2)c(=O)o1 (single isomer, unassigned) [Example 144, N-(3-(R or S)-{Cyclopropyl-[6-(1-(R)-ethylphenethyl)-4-hydroxy-2-oxo-2H-pyran-3-yl]-methyl}-phenyl)-1-methyl-1H-imidazole-2-sulfonamide] | 1.2 nM |  |  |  |  |  |  | PROTEASE % INHIB. (HIV-1 protease [1]; Table I, Dose 0.123 μM): 80.58%; PROTEASE % INHIB. (HIV-1 protease [1]; Table I, Dose 0.370 μM): 87.39%; PROTEASE % INHIB. (HIV-1 protease [1]; Table I, Dose 1.100 μM): 93.82%; PROTEASE % INHIB. (HIV-1 protease [1]; Table I, Dose 3.300 μM): 100.01%; PROTEASE % INHIB. (HIV-1 protease [1]; Table I, Dose 10.000 μM): 98.12%; PROTEASE % INHIB. (HIV-1 protease [1]; Table I, Dose 30.000 μM): 95.88% |
| CCCC1(CCC)CC(O)=C(C(c2cccc(NS(=O)(=O)c3ccc(C#N)cc3)c2)C2CC2)C(=O)O1 (centres unmarked) [Example 50] | 1.78 nM | 101% | 108% | 113% | 112% | 101% | 84.8% |  |
| O=c1oc(C(CC2CC2)CC2CC2)cc(O)c1C(c1cccc(NS(=O)(=O)c2ccccn2)c1)C1CC1 (centres unmarked) [Example 99, N-(3-{Cyclopropyl-[6-(2-cyclopropyl-1-cyclopropylmethyl-ethyl)-4-hydroxy-2-oxo-2H-pyran-3-yl]-methyl}-phenyl)-2-pyridine-sulfonamide] | 0.66 nM | 85.7% | 102% | 108% | 100% | 107% | 103% |  |
